# According to paper PMC6337650 (Molecules, 2018):
# What was measured:
# [1] = test system: HCT-116 cells; test: Cell cycle analysis by flow cytometry (PI); type: cell-based, human; conditions: 24 h; for proportion of cells in the S phase: control 18.64%; for proportion of cells in the G1 phase: control 70.67%
# Protocol: HCT-116 cells were plated in 6-well plates (5.0 × 10^5 cells per well) and incubated at 37 °C for 24 h. Exponentially growing cells were then incubated with compound 5d at 5 and 15 µM. After 24 h, untreated cells (control) or cells treated with compound 5d were centrifuged at 1000 rpm for 10 min and then fixed in 70% ethanol at −20 °C for at least 24 h. The cells were subsequently resuspended in phosphate-buffered saline (PBS) containing 0.1 mg/mL of RNase A and 5 µg/mL propidium iodide (PI). The cellular DNA content for the cell cycle distribution analysis was measured by flow cytometry using a FACSCalibur flow cytometer with Cell Quest software (Becton-Dickinson, Franklin Lakes, NJ, USA), plotting at least 30,000 events per sample. The percentage of cells in the G1, S and G2 phases of the cell cycle were determined using the ModFit LT version 4.0 software package (Verity Software, Topsham, ME, USA).
# [2] = test system: Cyclin E1; test: Western blot, cyclin E1 in HCT-116 cells; type: cell-based, human; conditions: HCT-116, 5, 10 and 15 μM, 24 h, concentration-dependent
# Protocol: (§1) HCT-116 cells were cultured with different concentrations of compound 5d for 24 h. Then, the floating cells was collected and washed two times with ice cold PBS. The pellet was resuspended in lysis buffer. After the cells were lysed on ice for 20 min, lysates were centrifuged at 12,000 rpm at 4 °C for 15 min. The protein concentration in the supernatant was determined using BCA protein assay reagents. Equal amounts of protein (50 μg) were resolved using sodium dodecyl sulphate-polyacrylamide gel electrophoresis (SDS-PAGE) (8−12% acrylamide gels) and transferred to a PVDF Hybond-P membrane. Membranes were blocked with PBS containing 5% non-fat milk for 1 h at room temperature. Membranes were then incubated with primary antibodies against Cyclin A (ENT1167, Elabscience, Wuhan, China), Cyclin E1 (ENT1176, Elabscience, Wuhan, China), Cyclin B1 (ENT1169, Elabscience, Wuhan, China) and β-actin (ENM0028, Elabscience, Wuhan, China), with gentle rotation overnight at 4 °C. Membranes were next incubated with fluorescent secondary antibodies for 2 h. Proteins were detected by electrochemiluminescence (Bio-Rad, Hercules, CA, USA).
# [3] = test system: HepG2 cells; test: MTT antiproliferative assay, HepG2; type: cell-based, human
# How it was run: (§2)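 Cells seeded at 9 × 10^3 per well, allowed 24 h to adhere, then exposed 48 h to compound at 1, 10, 50 and 100 µM. MTT added to 2 mg/mL for 4 h, formazan dissolved in DMSO, OD read at 492 nm; inhibition calculated relative to untreated and blank wells.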
# [4] = MTT antiproliferative assay, HepG2; type: cell-based, human; conditions: human, HepG2 liver cancer cells versus normal L02 cells; HepG2 vs L02
# How it was run: as §2
# [5] = test system: Cyclin B1; test: Western blot, cyclin B1 in HCT-116 cells; type: cell-based, human; conditions: HCT-116, 5, 10 and 15 μM, 24 h, concentration-dependent
# Protocol: as §1
# [6] = MTT antiproliferative assay, BEL-7402; type: cell-based, human; conditions: human, BEL-7402 liver cancer cells versus normal L02 cells; BEL-7402 vs L02
# How it was run: as §2
# [7] = test system: BEL-7402 cells; test: MTT antiproliferative assay, BEL-7402; type: cell-based, human
# How it was run: as §2
# [8] = test system: Cyclin A; test: Western blot, cyclin A in HCT-116 cells; type: cell-based, human; conditions: HCT-116, 5, 10 and 15 μM, 24 h, concentration-dependent
# Protocol: as §1
# [9] = test system: HCT-116 cells; test: Apoptosis by annexin V-FITC/propidium iodide flow cytometry; type: cell-based, human; conditions: 24 h; for percentage of total apoptotic cells (UR + LR): control 5.98%
# Protocol: Apoptosis was detected using an Apoptosis Detection Kit (Invitrogen, Eugene, OR, USA). In brief, cells were cultured in 6-well plates (5.0 × 10^5 cells per well) and incubated at 37 °C for 24 h. Cells with exponential growth were then incubated with compound 5d at 5 and 15 µM. Following 24 h of incubation, the cells were collected, washed twice with PBS and once with 1 × binding buffer and then stained with […] of annexin V-FITC and […] of PI 5mg/mL in 1 × binding buffer for 30 min at room temperature in the dark. Apoptotic cells were enumerated using a FACSCalibur flow cytometer with Cell Quest software (Becton–Dickinson, Franklin Lakes, NJ, USA).
# [10] = test system: HCT-116 cells; test: Colony formation assay; type: cell-based; conditions: Homo sapiens, HCT-116, 168 h, 7 days, read-out: inhibition rate of colony formation
# Protocol: Exponentially growing determined HCT-116 cells (6 × 10^2 per well) were plated in 6-well plates with the Roswell Park Memorial Institute (RPMI) 1640 culture medium (Gibco, USA) containing with 10% fetal bovine serum (FBS) (Gibco, Waltham, MA, USA). After an overnight incubation, the culture medium was removed and replaced fresh medium. Then, the cells were treated with various concentrations of compound 5d (5, 10 and 15 μM) dissolved in DMSO. Some cells were treated with DMSO only as a negative control. The cells were then incubated for another 7 days. Finally, the cells were fixed with 4% paraformaldehyde for 30 min and stained with 0.1% crystal violet for 15 min at room temperature, after which, the staining was washed with PBS until the colonies were totally cleared.
# [11] = IC50 on normal cells (L02)/IC50 on cancer cells
compound,measurement,setting,value
"Cc1ccc(-n2cc(CNC(=O)COC(=O)[C@]3(C)CCC[C@@]4(C)[C@@H]5CC[C@@]6(C)C[C@]5(CC[C@@H]43)CC6=O)nn2)cc1 [Compound 5d, 2-oxo-2-(((1-(p-tolyl)-1H-1,2,3-triazol-4-yl)methyl)amino)ethyl(4R,4aS,6aR,9S,11aR,11bS)-4,9,11b-trimethyl-8-oxotetradecahydro-6a,9-methanocyclohepta[a]naphthalene-4-carboxylate]",proportion of cells in the S phase,[1]; 5 μM,25.70%
same,proportion of cells in the G1 phase,[1]; 5 μM,51.67%
same,proportion of cells in the S phase,[1]; 15 μM,42.31%
same,proportion of cells in the G1 phase,[1]; 15 μM,41.32%
same,cyclin E1 protein level,[2],decreased
same,inhibition at 100 µM,"[3]; Homo sapiens, HepG2, 100 μM, 48 h, MTT, mean ± SD, n=3, read-out: % Growth Inhibition at 100 μM HepG2",82.8 ± 0.86%
same,IC50,"[3]; Homo sapiens, HepG2, 48 h, MTT, mean ± SD, n=3",8.92 ± 0.44 µM
same,Selectivity Index HepG2,[3]; [11],18.05
same,fold more active than 5-FU,[3]; against HepG2 cells,2.6 fold
same,selectivity ratio at 48 h,[4],22
same,cyclin B1 protein level,[5],increasing
same,selectivity ratio at 48 h,[6],11.2
same,inhibition at 100 µM,"[7]; Homo sapiens, Bel-7402, 100 μM, 48 h, MTT, mean ± SD, n=3, read-out: % Growth Inhibition at 100 μM BEL-7402",86.5 ± 0.87%
same,IC50,"[7]; Homo sapiens, Bel-7402, 48 h, MTT, mean ± SD, n=3",15.9 ± 0.41 µM
same,Selectivity Index BEL-7402,[7]; [11],10.12
same,fold more active than 5-FU,[7]; against BEL-7402 cells,1.3 fold
same,cyclin A protein level,[8],decreased
same,percentage of total apoptotic cells (UR + LR),[9]; 5 μM,7.67%
same,percentage of total apoptotic cells (UR + LR),[9]; 15 μM,24.94%
same,dead cells (UL),"[9]; 15 μM, control 8.84%",49.22%
same,inhibition at 15 µM,[10],84%
